Assay [1] deals with Escherichia coli. The assay is described as follows: Antimicrobial activity against Escherichia coli ATCC 25922 by broth macrodilution method. In kind it is functional.
Assay [2] relates to Escherichia coli. The assay is described as follows: Antimicrobial activity against Escherichia coli ATCC 25922 by broth macrodilution method in presence of beta-lactamase inhibitor Tazobactam. In kind it is functional, organism-based.
The subject of assay [3] is Escherichia coli. As to the kind of experiment: Bactericidal activity against Escherichia coli ATCC 25922 using 10^5 CFU/ml inoculum assessed as log reduction in bacterial count at 4 times MIC after 24 hrs by time-kill study. The class given is functional.
Assay [4] concerns Escherichia coli. As to the kind of experiment: Bactericidal activity against Escherichia coli ATCC 25922 using 10^8 CFU/ml inoculum assessed as log reduction in bacterial count at 256 times MIC after 24 hrs by time-kill study. In kind it is functional.

The values below come from ChEMBL document CHEMBL1687795, “Mathematical modeling to characterize the inoculum effect” (2010).

In brackets after ≈: the same amount, converted by molar mass. Activity calls are given as the source filed them. No cut-off for these calls is given here.

On to `CCN1CCN(C(=O)N[C@@H](C(=O)N[C@@H]2C(=O)N3[C@@H]2SC(C)(C)[C@@H]3C(=O)O)c2ccccc2)C(=O)C1=O` [PIPERACILLIN], for which, in the assay with Escherichia coli [1], the MBC turned out to be 2 µg/mL (≈ 3.86 µM) and inhibition of growth (MIC) required 2 µg/mL (≈ 3.86 µM). In the assay on Escherichia coli [2], the result was Active. Besides, in the assay with Escherichia coli [3], the FC is recorded as over 2. Also, in the assay on Escherichia coli [4], the FC is on record as over 2.
